Results as given in the OPERA property sets (Mansouri et al. 2018).

SMILES | logP
COc1cccs1 | 2.13
CCCOC(=O)c1cccs1 | 3.01
CNC(=O)c1cccs1 | 0.84
CNC(=O)c1ccsc1 | 0.81
Clc1ccsc1 | 2.55
CCCNC(=O)c1ccsc1 | 1.65
CCCOC(=O)c1ccsc1 | 3.03
CCCNC(=O)c1cccs1 | 1.68
COC(=O)c1cccs1 | 1.83
CCNC(=O)c1ccsc1 | 1.18
CCOC(=O)c1ccsc1 | 2.32
CCNC(=O)c1cccs1 | 1.18
